ChEMBL document CHEMBL4270496, “How to train your inhibitor: Design strategies to overcome resistance to Epidermal Growth Factor Receptor inhibitors” (Eur J Med Chem, 2017)

Tests used:
[1] = tested on: A-431; test: Antiproliferative activity against human A431 cells expressing wild type EGFR incubated for 72 hrs by MTS assay; format: functional, cell-based; conditions: A-431, 72 h
[2] = tested on: NCI-H1975; test: Antiproliferative activity against human NCI-H1975 cells expressing EGFR T790M/L858R mutant incubated for 72 hrs by MTS assay; format: functional, cell-based; conditions: NCI-H1975, 72 h
[3] = tested on: NCI-N87; test: Antiproliferative activity against human NCI-N87 cells expressing wild type EGFR and HER2 incubated for 72 hrs by MTS assay; format: functional, cell-based; conditions: NCI-N87, 72 h
[4] = tested on: SK-BR-3; test: Antiproliferative activity against human SKBR3 cells expressing wild type HER2 incubated for 72 hrs by MTS assay; format: functional, cell-based; conditions: SK-BR-3, 72 h
[5] = molecular target: T1, Receptor tyrosine-protein kinase erbB-2 (Homo sapiens, UniProt P04626); test: Inhibition of GST-tagged human HER2 catalytic domain expressed in insect cells
[6] = Antiproliferative activity against human HS27 cells expressing wild type HER2 incubated for 72 hrs by MTS assay; format: cell-based
[7] = Antiproliferative activity against human NCI-H1819 cells expressing wild type HER2 incubated for 72 hrs by MTS assay; format: functional, cell-based; conditions: NCI-H1819, 72 h
[8] = molecular target: T1, Receptor tyrosine-protein kinase erbB-2; test: Inhibition of HER2 (unknown origin)
[9] = tested on: MCF7; test: Antiproliferative activity against human MCF7 cells expressing wild type HER2; format: functional, cell-based
[10] = molecular target: Epidermal growth factor receptor (Homo sapiens, UniProt P00533, T790M/L858R); test: Inhibition of EGFR T790M/L858R mutant (unknown origin)
[11] = tested on: A-431; test: Antiproliferative activity against human A431 cells expressing wild type EGFR; format: functional, cell-based
[12] = molecular target: T2, Epidermal growth factor receptor (Homo sapiens, UniProt P00533); test: Inhibition of EGFR (unknown origin)
[13] = tested on: NCI-H1975; test: Antiproliferative activity against human NCI-H1975 cells expressing EGFR T790M/L858R mutant; format: functional, cell-based
[14] = tested on: BT-474; test: Antiproliferative activity against human BT474 cells expressing wild type HER2 incubated for 72 hrs by MTS assay; format: functional, cell-based; conditions: BT-474, 72 h
[15] = tested on: MCF7; test: Antiproliferative activity against human MCF7 cells expressing wild type HER2 incubated for 72 hrs by MTS assay; format: functional, cell-based; conditions: MCF7, 72 h
[16] = tested on: A549; test: Antiproliferative activity against human A549 cells; format: functional, cell-based
[17] = molecular target: Epidermal growth factor receptor (Homo sapiens, UniProt P00533, T790M); test: Inhibition of human EGFR T790M mutant expressed in mouse Ba/F3 cells; format: cell-based
[18] = molecular target: Epidermal growth factor receptor (Homo sapiens, UniProt P00533, L858R/T790M); test: Inhibition of human EGFR T790M/L858R mutant expressed in mouse Ba/F3 cells; format: cell-based
[19] = molecular target: T2, Epidermal growth factor receptor; test: Inhibition of GST-tagged human EGFR catalytic domain expressed in insect cells
[20] = molecular target: Epidermal growth factor receptor (Homo sapiens, UniProt P00533, L858R); test: Inhibition of human EGFR L858R mutant expressed in mouse Ba/F3 cells; format: cell-based
Epidermal growth factor receptor (Homo sapiens, UniProt P00533, L858R), sequence (P00533 25-1210 L858R limits assumed): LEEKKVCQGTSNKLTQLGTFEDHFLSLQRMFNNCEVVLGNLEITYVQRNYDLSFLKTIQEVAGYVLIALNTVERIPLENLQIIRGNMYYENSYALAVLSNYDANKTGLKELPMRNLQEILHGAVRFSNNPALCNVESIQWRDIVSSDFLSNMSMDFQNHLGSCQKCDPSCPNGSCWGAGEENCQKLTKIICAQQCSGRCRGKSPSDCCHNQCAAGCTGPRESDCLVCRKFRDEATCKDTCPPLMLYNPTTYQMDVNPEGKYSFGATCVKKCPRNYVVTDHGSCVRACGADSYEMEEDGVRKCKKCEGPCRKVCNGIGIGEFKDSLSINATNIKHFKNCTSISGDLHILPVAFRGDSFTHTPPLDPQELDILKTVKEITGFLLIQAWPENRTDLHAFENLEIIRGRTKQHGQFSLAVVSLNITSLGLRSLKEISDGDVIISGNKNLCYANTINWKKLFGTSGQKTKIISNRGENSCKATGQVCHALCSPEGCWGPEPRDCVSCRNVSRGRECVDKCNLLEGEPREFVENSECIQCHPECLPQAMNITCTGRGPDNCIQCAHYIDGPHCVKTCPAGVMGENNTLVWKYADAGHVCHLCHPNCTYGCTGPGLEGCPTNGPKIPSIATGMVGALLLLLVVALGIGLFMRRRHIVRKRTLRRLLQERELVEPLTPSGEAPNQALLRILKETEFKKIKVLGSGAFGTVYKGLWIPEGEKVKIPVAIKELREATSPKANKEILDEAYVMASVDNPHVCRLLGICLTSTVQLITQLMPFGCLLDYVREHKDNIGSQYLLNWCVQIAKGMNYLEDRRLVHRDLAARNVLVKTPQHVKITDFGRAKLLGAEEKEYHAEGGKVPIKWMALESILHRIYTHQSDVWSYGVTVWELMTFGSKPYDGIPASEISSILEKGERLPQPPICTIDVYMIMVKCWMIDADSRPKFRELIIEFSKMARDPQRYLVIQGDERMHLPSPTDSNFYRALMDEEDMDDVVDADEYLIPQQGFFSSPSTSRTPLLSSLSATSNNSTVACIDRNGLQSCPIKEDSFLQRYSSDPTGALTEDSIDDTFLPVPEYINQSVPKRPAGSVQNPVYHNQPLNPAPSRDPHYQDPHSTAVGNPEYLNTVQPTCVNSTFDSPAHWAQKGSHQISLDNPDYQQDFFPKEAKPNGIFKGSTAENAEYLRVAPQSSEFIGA

T1 sequence (P04626 whole entry, the tested form may be a part): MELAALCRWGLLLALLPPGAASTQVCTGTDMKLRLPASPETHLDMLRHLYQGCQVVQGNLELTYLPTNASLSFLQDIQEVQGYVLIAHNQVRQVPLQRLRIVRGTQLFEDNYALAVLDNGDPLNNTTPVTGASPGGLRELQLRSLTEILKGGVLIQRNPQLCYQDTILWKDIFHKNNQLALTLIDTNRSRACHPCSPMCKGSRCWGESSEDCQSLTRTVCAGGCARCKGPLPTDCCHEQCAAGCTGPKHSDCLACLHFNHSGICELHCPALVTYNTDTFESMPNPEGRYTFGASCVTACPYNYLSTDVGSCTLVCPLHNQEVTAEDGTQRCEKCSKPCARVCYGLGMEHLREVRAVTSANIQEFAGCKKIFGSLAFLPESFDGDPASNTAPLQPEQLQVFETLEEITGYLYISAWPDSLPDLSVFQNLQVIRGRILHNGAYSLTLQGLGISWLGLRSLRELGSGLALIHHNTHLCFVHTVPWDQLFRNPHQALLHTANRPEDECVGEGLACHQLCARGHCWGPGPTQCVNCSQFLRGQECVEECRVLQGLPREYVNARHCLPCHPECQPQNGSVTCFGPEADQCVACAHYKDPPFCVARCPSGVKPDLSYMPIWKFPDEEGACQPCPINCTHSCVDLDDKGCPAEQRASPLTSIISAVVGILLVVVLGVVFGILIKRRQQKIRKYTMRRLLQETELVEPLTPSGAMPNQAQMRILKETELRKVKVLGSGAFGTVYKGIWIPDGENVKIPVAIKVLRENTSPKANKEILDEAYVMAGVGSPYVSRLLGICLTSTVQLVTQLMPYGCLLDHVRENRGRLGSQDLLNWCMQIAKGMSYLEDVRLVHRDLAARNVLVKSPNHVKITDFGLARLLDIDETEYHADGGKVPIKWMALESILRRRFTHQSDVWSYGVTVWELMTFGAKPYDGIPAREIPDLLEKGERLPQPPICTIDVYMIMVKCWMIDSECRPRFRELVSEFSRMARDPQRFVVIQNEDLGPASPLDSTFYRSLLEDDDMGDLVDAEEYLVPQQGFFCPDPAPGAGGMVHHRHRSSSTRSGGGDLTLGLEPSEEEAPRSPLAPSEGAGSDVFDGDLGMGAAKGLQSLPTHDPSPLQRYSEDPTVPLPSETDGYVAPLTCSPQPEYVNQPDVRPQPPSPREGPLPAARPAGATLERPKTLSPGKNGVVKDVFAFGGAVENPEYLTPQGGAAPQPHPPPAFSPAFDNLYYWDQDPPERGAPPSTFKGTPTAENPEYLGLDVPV
T2 sequence (P00533 whole entry): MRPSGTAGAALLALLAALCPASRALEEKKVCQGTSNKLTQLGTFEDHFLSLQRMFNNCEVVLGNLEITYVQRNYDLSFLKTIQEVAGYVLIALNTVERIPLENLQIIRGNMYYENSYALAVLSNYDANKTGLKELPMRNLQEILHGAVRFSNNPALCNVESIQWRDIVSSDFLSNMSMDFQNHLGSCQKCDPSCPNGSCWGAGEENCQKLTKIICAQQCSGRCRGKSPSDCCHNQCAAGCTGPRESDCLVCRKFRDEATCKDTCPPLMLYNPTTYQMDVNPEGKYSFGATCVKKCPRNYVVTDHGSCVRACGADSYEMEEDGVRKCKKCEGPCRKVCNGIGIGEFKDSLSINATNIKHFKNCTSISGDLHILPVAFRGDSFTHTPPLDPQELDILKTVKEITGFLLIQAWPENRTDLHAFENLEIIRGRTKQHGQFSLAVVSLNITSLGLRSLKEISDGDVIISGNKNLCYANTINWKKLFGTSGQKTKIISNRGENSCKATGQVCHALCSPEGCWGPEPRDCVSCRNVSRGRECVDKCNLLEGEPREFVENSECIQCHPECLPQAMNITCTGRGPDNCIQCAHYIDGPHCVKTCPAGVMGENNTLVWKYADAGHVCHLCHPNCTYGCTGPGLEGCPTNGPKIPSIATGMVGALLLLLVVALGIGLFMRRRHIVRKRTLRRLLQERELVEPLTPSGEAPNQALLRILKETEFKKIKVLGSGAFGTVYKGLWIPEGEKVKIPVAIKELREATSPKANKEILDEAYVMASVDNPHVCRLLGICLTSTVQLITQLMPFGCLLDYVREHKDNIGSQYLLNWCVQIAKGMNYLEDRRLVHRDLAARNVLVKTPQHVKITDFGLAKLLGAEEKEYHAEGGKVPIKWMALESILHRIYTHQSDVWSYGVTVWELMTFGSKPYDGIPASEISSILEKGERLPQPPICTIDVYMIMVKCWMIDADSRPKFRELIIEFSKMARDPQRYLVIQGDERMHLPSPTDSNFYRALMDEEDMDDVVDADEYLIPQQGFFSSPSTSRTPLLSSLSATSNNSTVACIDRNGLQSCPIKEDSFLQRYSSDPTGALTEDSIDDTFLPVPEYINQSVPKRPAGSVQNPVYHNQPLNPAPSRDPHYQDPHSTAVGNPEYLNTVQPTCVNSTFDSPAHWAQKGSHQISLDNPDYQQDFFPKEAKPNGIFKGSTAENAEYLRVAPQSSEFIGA
Epidermal growth factor receptor (Homo sapiens, UniProt P00533, L858R/T790M), sequence (P00533 25-1210 T790M/L858R limits assumed): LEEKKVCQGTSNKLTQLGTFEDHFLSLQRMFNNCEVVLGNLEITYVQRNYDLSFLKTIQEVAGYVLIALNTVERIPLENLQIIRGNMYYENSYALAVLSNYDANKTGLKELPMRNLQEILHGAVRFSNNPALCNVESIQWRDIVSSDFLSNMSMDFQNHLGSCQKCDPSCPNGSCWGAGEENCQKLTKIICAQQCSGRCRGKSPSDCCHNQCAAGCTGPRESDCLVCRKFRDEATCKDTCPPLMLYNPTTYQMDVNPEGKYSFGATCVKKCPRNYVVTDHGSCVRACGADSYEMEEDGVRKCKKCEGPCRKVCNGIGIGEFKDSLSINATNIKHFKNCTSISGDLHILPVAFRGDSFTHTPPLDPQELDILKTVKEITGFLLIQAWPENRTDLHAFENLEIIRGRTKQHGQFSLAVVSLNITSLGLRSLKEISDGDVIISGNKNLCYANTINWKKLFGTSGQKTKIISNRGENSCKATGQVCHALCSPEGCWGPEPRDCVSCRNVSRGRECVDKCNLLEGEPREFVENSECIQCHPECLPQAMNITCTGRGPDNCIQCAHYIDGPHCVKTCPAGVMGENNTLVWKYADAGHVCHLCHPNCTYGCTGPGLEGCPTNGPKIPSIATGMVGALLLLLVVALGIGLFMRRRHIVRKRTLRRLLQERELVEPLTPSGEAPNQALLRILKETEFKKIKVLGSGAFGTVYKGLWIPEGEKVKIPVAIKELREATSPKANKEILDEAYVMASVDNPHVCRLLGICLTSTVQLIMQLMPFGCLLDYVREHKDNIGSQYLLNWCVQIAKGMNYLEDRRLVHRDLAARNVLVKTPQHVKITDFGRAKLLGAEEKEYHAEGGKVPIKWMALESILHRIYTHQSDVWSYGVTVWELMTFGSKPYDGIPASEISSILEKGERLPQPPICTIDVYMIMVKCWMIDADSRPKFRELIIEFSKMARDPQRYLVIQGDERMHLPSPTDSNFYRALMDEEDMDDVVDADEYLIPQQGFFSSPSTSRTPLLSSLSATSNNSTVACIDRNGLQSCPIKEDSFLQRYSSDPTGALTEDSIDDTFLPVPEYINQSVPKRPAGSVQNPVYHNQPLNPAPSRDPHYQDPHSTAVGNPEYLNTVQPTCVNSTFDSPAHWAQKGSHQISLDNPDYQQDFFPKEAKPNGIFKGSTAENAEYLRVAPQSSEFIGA

CCOc1cc2ncnc(Nc3ccc(OCc4cccc(F)c4)c(Cl)c3)c2cc1NC(=O)/C=C/[C@@H]1CCCN1
IC50 [1]: 62 nM | IC50 [2]: 34 nM | IC50 [3]: 47 nM

C=CC(=O)N1CCC(Oc2cc3c(Nc4ccc(Cl)c(Cl)c4F)ncnc3cc2OC)CC1 [POZIOTINIB]
IC50 [1]: 0.9 nM | IC50 [4]: 1 nM | IC50 [5]: 5.3 nM | IC50 [2]: 5.7 nM | GI50 at 72 h [6]: 3.83 µM

COc1cc2ncnc(Nc3ccc(F)c(Cl)c3)c2cc1NC(=O)/C=C/CN1CCCCC1 [DACOMITINIB ANHYDROUS]
IC50 [2]: 440 nM | IC50 [7]: 29 nM

CC(C)(O)CC(=O)NCCc1ccc2ncnc(Nc3ccc(Oc4cccc(C(F)(F)F)c4)c(Cl)c3)c2c1
IC50 [8]: 19 nM | IC50 [9]: 94 nM | IC50 [10]: 33 nM | IC50 [11]: 41 nM | IC50 [12]: 9.8 nM | IC50 [13]: 127 nM

C=CC(=O)Nc1cc2c(Nc3ccc(F)c(Cl)c3)ncnc2cc1OCCCN1CCOCC1 [CANERTINIB]
IC50 [2]: 101 nM

CN(C)C/C=C/C(=O)Nc1cc2c(Nc3ccc(F)c(Cl)c3)ncnc2cc1O[C@@H]1CCOC1
IC50 [2]: 92 nM | IC50 [14]: 54 nM

O=C(Nc1ccc2ncnc(Nc3cccc(Br)c3)c2c1)c1ccc(C(F)(F)F)cc1O
IC50 [1]: 670 nM | IC50 [15]: 490 nM | IC50 [16]: 1640 nM

C=CC(=O)Nc1cc2c(Nc3ccc(F)c(Cl)c3)ncnc2cc1C#CC(C)(C)N1CCN(C)CC1 [AV-412 FREE BASE]
IC50 [1]: 100 nM | IC50 [17]: 0.79 nM | IC50 [18]: 2.3 nM | IC50 [5]: 19 nM | IC50 [19]: 1.4 nM | IC50 [20]: 0.51 nM
